Assay results: PMC7144358, “Determination of KD025 (SLx-2119), a Selective ROCK2 Inhibitor, in Rat Plasma by High-Performance Liquid Chromatography-Tandem Mass Spectrometry and Its Pharmacokinetic Application” (Molecules, 2020)
Read-outs that look alike come from different tables or passages of the source. Values belong to the molecule of their own block, whether it stands above or below them.

Columns and labels:
[1] = Stability of stock solutions; format: physicochemical; conditions: KD025 200 ng/mL, IS 250 ng/mL; for Stock solution stability, concentration as % of fresh samples: room temperature for 4 h; for Stock solution stability: −20 °C for 4 weeks
Procedure: (§1) The stability of stock solutions of KD025 and IS was assessed by comparing the peak response of freshly prepared methanol/acetonitrile solution with that of the solution stored at room temperature for 4 hours or at −20 °C for 4 weeks of KD025 (200 ng/mL) and IS (250 ng/mL). The stability of QC samples in rat plasma at low, middle, high, and ultra-high concentrations was investigated in terms of short- and long-term stability, post-preparative stability, and freeze-thaw stability. Short-term stability was assessed by holding QC samples at the laboratory condition (room temperature) for 4 h, while QC samples were stored at −20 °C for 4 weeks to evaluate long-term stability. The post-preparative stability of processed samples stored in an autosampler (4 °C) was evaluated after 24 hours. Freeze-thaw stability was tested over three repeated cycles, in which QC samples were frozen at −20 °C and then thawed at room temperature. Peak area ratio changes of < 15% between stored and freshly prepared samples were considered as the criteria for the stability of samples [41].

[2] = parameters: method as in PMID 28389592; conditions: 38 patients with psoriasis, oral administration, phase 2; cited from earlier work
[3] = Stability of KD025 in rat plasma under storage/handling conditions; format: in vitro ADME; conditions: for Stability (%), auto-sampler stability (24 h at 4 °C): processed rat plasma sample; for Stability (%), auto-sampler stability (24 h at 4 °C) / Stability (%), freeze-thaw stability (3 cycles) / Stability (%), long-term stability (4 weeks at −20 °C) / Stability (%), short-term stability (4 h at room temperature): n = 3
Procedure: as §1

[4] = human, in vivo, po; cited from earlier work
[5] = parameters: method as in doi:10.1016/j.bbmt.2018.12.100, doi:10.1182/blood-2019-125986, doi:10.1097/01.HS9.0000564392.13730.a3; conditions: 54 patients, phase 2a; cited from earlier work
[6] = Pharmacokinetic study after single oral and IV administration of KD025 to rats; format: in vivo, Sprague–Dawley rats; conditions: rat
Procedure: The feasibility of the developed LC/MS–MS method was examined by performing pharmacokinetic studies of KD025 in rats. Animal experiments were performed in accordance with the guide for the care and use of laboratory animals issued by the National Institutes of Health, as described previously. All experimental protocols were approved by the Animal Care and Use Committee of Gachon University (No. GIACUC-R2018014, approved on June 20th, 2018). Sprague–Dawley rats (8–9 weeks, 250–300 g, Nara Biotech, South Korea) were provided free access to food and water and maintained under 12 h light/dark cycles to adjust to the laboratory environment for a week before commencing the study. Rats were anesthetized by intramuscular injections (20 mg/kg) of Zoletil® (Vibrac, TX, USA) and cannulated by surgery to the femoral artery with polyethylene tubing (Clay Adams, NJ, USA) filled with heparinized saline (20 IU/mL) for blood sampling. After the rats had recovered from surgery, KD025 in a vehicle mixture (DMSO:Cremophor EL:PEG400:DDW = 5:10:40:50) was administered to rats at a dose of 5 mg/kg and 2 mg/kg for oral and IV administration, respectively. Blood samples (220 μL) were collected at 0 (blank), 1 (IV only), 5, 15, 30, 60, 120, 180, 240, 360, 480 and 1440 (oral only) min after KD025 administration and equal volumes of saline were injected for compensation of fluid loss. Plasma was separated from other components of blood by centrifugation at 14,000 rpm for 15 min at 4 °C and then was stored at −20 °C until analysis.
For sample preparation, 100 μL of IS in acetonitrile solution (250 ng/mL) was added to 50 μL of plasma samples, followed by vortex-mixing in 1 min for deproteinization. Samples were then centrifuged at 14,000 rpm for 15 min at 4 °C, and 100 μL aliquots of the supernatant were collected for analysis, as described in Section 3.2. The plasma peak concentration (Cmax) and time to reach Cmax (Tmax) were directly determined from each individual plasma concentration–time profile. Other pharmacokinetic parameters were calculated using WinNonlin® 3.1 software (Pharsight, Cary, NC, USA) by a non-compartmental method, as described previously. Results are presented as means ± standard deviations.

ROCK2 = test system: ROCK2; parameters: method as in PMID 26486225, PMID 21242007; conditions: cited from earlier work
[7] = rat plasma, UHQC 8000 ng/mL diluted 10 times to 800 ng/mL
[8] = Sprague-Dawley, plasma, IV 2 mg/kg, n = 5
[9] = Sprague-Dawley, plasma, PO 5 mg/kg, n = 5

Stock solution stability, concentration as % of fresh samples [1]: 100.0% | Stock solution stability [1]: 91.1%
Compound: CC1=C(C(=O)Nc2cc3cn[nH]c3cc2F)C(c2ccc(C(F)(F)F)cc2)CC(=O)N1 (stereo not drawn) [IS]

Stock solution stability, concentration as % of fresh samples [1]: 89.6% | Stock solution stability [1]: 95.4% | Stability (%), auto-sampler stability (24 h at 4 °C) ([3]; 1 ng/mL): 112.1 ± 2.0% | Stability (%), auto-sampler stability (24 h at 4 °C) ([3]; 3 ng/mL): 100.2 ± 0.2% | Stability (%), auto-sampler stability (24 h at 4 °C) ([3]; 40 ng/mL): 102.0 ± 1.3% | Stability (%), auto-sampler stability (24 h at 4 °C) ([3]; 400 ng/mL): 98.1 ± 2.1% | Stability (%), auto-sampler stability (24 h at 4 °C) ([3]; 800 ng/mL): 101.1 ± 0.8% | Stability (%), auto-sampler stability (24 h at 4 °C) ([3]; UHQC 8000 ng/mL diluted 10 times to 800 ng/mL): 103.3 ± 3.2% | Short-term stability, peak area ratio vs freshly prepared samples ([3]; rat plasma at room temperature (4 h), range over QC and UHQC concentrations): 92.8–100.5% | Long-term stability, peak area ratio vs freshly prepared samples ([3]; rat plasma at −20 °C (4 weeks), range over QC and UHQC concentrations): 95.8–109.9% | Stability (%), freeze-thaw stability (3 cycles) ([3]; rat plasma, 1 ng/mL): 114.1 ± 1.5% | Stability (%), long-term stability (4 weeks at −20 °C) ([3]; rat plasma, 1 ng/mL): 95.8 ± 3.7% | Stability (%), short-term stability (4 h at room temperature) ([3]; rat plasma, 1 ng/mL): 92.8 ± 5.0% | Stability (%), freeze-thaw stability (3 cycles) ([3]; rat plasma, 3 ng/mL): 108.7 ± 3.4% | Stability (%), long-term stability (4 weeks at −20 °C) ([3]; rat plasma, 3 ng/mL): 104.9 ± 6.0% | Stability (%), short-term stability (4 h at room temperature) ([3]; rat plasma, 3 ng/mL): 93.0 ± 1.3% | Stability (%), freeze-thaw stability (3 cycles) ([3]; rat plasma, 40 ng/mL): 110.1 ± 6.5% | Stability (%), long-term stability (4 weeks at −20 °C) ([3]; rat plasma, 40 ng/mL): 106.3 ± 3.0% | Stability (%), short-term stability (4 h at room temperature) ([3]; rat plasma, 40 ng/mL): 94.0 ± 1.6% | Stability (%), freeze-thaw stability (3 cycles) ([3]; rat plasma, 400 ng/mL): 103.3 ± 3.3% | Stability (%), long-term stability (4 weeks at −20 °C) ([3]; rat plasma, 400 ng/mL): 109.9 ± 2.2% | Stability (%), short-term stability (4 h at room temperature) ([3]; rat plasma, 400 ng/mL): 99.0 ± 0.6% | Stability (%), freeze-thaw stability (3 cycles) ([3]; rat plasma, 800 ng/mL): 109.3 ± 5.3% | Stability (%), long-term stability (4 weeks at −20 °C) ([3]; rat plasma, 800 ng/mL): 106.4 ± 1.1% | Stability (%), short-term stability (4 h at room temperature) ([3]; rat plasma, 800 ng/mL): 93.6 ± 1.8% | Stability (%), freeze-thaw stability (3 cycles) [3, 7]: 114.3 ± 2.2% | Stability (%), long-term stability (4 weeks at −20 °C) [3, 7]: 98.6 ± 0.5% | Stability (%), short-term stability (4 h at room temperature) [3, 7]: 100.5 ± 2.5% | Peak area ratio vs fresh samples after three freeze-thaw cycles ([3]; rat plasma, range over five QC and UHQC concentrations): 103.3–114.3% | Post-preparative stability, peak area ratio ([3]; samples stored in autosampler at 4 °C (24 h), range over QC and UHQC concentrations): 98.1–112.1% | AUC(0-t) [6, 8]: 872 ng·h/mL | MRT [6, 8]: 0.773 h | clearance [6, 8]: 38.9 ± 6.2 mL/min/kg | half-life [6, 8]: 1.47 ± 0.332 h | Cmax ([6]; Sprague-Dawley, plasma, IV 2 mg/kg, n = 5, C0 estimated by noncompartmental analysis, read-out: Cmax (C0)): 4420 ± 1210 ng/mL | Vd ([6]; Sprague-Dawley, plasma, IV 2 mg/kg, n = 5, read-out: Vss): 1.78 ± 0.287 L/kg | AUC(0-t) [6, 9]: 763 ng·h/mL | MRT [6, 9]: 7.91 h | half-life [6, 9]: 5.89 ± 2.82 h | Tmax ([6]; Sprague-Dawley, plasma, PO 5 mg/kg, n = 5, mean ± SD): 2.2 h | Cmax ([6]; Sprague-Dawley, plasma, PO 5 mg/kg, n = 5, mean ± SD, read-out: Cmax): 128 ± 74.7 ng/mL | AUC(0-inf) ([6]; Sprague-Dawley, plasma, iv, 2 mg/kg, IV 2 mg/kg, n = 5): 812 ng·h/mL | bioavailability ([6]; Sprague-Dawley, plasma, oral, PO 5 mg/kg vs IV 2 mg/kg, AUC∞PO/AUC∞IV × 100): ~37% | AUC(0-inf) ([6]; Sprague-Dawley, plasma, po, 5 mg/kg, PO 5 mg/kg, n = 5): 877 ng·h/mL | AUClast to AUC∞ ratio ([6]; IV 2 mg/kg): 99.2% | AUC∞ /Dose ([6]; IV 2 mg/kg, n = 5): 26.3 ± 5.0 μg∙min/mL/[mg/kg] | AUC∞ ([6]; IV 2 mg/kg, n = 5, 2 mg/kg): 52.7 ± 10.0 µg·min/mL | AUC∞ /Dose ([6]; PO 5 mg/kg, n = 5): 9.7 ± 2.4 μg∙min/mL/[mg/kg] | AUC∞ ([6]; PO 5 mg/kg, n = 5, 5 mg/kg): 48.7 ± 11.8 µg·min/mL | AUClast to AUC∞ ratio ([6]; oral 5 mg/kg): 94.0%
Compound: CC(C)NC(=O)COc1cccc(-c2nc(Nc3ccc4[nH]ncc4c3)c3ccccc3n2)c1 [KD025, 2-(3-(4-((1H-Indazol-5-yl)amino)quinazolin-2-yl)phenoxy)-N-isopropylacetamide]
Clinical effect in psoriasis [2]: reduced psoriasis area, normalized skin pathology, and down-regulated serum IL-17 and IL-23 cytokines | Tolerability [2]: well tolerated, with no serious side effects | Tolerability [4]: well tolerated and produced no significant adverse events, including cardiovascular side effects | Clinical response in chronic graft-versus-host disease [5]: clinically meaningful responses with little toxicity and reductions in corticosteroid doses | Selectivity for ROCK2 than ROCK1 (ROCK2): 100 fold
